Results on 39 compounds are retold here after patent US10065941B2, “Aminotriazine derivative and pharmaceutical composition comprising the same” (Shionogi & Co., Ltd., priority 2013, dated 2018).

pIC50: −log10 of the molar value.

Sequence of human P2X3 receptor (P56373 whole entry): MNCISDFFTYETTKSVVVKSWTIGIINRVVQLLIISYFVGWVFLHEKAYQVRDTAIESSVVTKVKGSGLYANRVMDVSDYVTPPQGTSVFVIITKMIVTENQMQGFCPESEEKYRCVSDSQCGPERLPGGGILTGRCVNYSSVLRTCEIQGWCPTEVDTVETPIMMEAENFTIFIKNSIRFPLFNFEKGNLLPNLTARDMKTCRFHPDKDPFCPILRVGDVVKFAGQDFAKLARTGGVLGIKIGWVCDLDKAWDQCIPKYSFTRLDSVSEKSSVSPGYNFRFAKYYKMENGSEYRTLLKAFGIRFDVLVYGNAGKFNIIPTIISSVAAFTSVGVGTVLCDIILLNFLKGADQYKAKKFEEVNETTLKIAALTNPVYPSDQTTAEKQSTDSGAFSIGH

This assay addresses human P2X3 receptor (Homo sapiens (Human), UniProt P56373). The assay is described as follows: Evaluation of human P2X3 receptor inhibitory activity (Test Example 1). In kind it is cell-based. Conditions: C6BU-1 cell transfected with human P2X3 receptor gene, FLIPR 384. Summed up:
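C6BU-1 cells stably expressing human P2X3, loaded with 4 μM Fluo-3-AM 1 h at 37 °C, preincubated 5 min with test compound, then stimulated with 150 nM ATP solution (stock, pre-dispense) and monitored by FLIPR for 4 min. IC50 derived from maximum fluorescence ratio (post-ATP peak over baseline).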
For orientation: pIC50 means the negative decadic logarithm of the IC50, by convention in mol/L. In the case of `CC(=O)c1ccc(Oc2ccc(/N=c3\[nH]c(=O)n(C[C@H](C)C(=O)O)c(=O)n3Cc3ccc(C)cc3)cc2)nc1` [Compound I-260], the negative logarithm of the IC50 (pIC50) was 8.30.

In turn, `Cc1ccc(Cn2c(=O)n(C[C@H](C)C(=O)O)c(=O)[nH]/c2=N\c2ccc(Oc3cccc(CF)n3)cc2)cc1` [Compound I-261] had a pIC50 of 8.10.

Compound `Cc1ccc(Cn2c(=O)n(C[C@H](C)C(=O)O)c(=O)[nH]/c2=N\c2ccc(Oc3ccc(C(C)O)cn3)cc2)cc1` (stereo partly drawn) [Compound I-262] gave a pIC50 of 8.15.

`C[C@@H](Cn1c(=O)[nH]/c(=N\c2ccc(Oc3ccccn3)cc2)n(CC2CC3(CCC3)C2)c1=O)C(=O)O` [Compound I-263] showed a pIC50 of 8.30.

With `C[C@@H](Cn1c(=O)[nH]/c(=N\c2ccc(Oc3ccc(F)cn3)cc2)n(CC2CC3(CCC3)C2)c1=O)C(=O)O` [Compound I-264], the negative-log IC50 (pIC50) was 8.30.

Consider `COC(=O)[C@@H](C)Cn1c(=O)[nH]/c(=N\c2ccc(Oc3cccc(CI)n3)cc2)n(Cc2ccc(C)cc2)c1=O` [Compound I-265], for which the pIC50 was 8.00.

On to `COC(=O)[C@@H](C)Cn1c(=O)[nH]/c(=N\c2ccc(Oc3cccc(CF)n3)cc2)n(Cc2ccc(C)cc2)c1=O` [Compound I-266], for which the pIC50 was 8.10.

Turning to `COC(=O)[C@@H](C)Cn1c(=O)[nH]/c(=N\c2ccc(Oc3ccc(C(C)=O)cn3)cc2)n(Cc2ccc(C)cc2)c1=O` [Compound I-267], the negative-log IC50 (pIC50) was 8.52.

The compound `COC(=O)[C@@H](C)Cn1c(=O)[nH]/c(=N\c2ccc(Oc3ccccn3)cc2)n(CC2CC3(CCC3)C2)c1=O` [Compound I-268] gave a pIC50 of 8.52.

On to `COC(=O)[C@@H](C)Cn1c(=O)[nH]/c(=N\c2ccc(Oc3ccc(F)cn3)cc2)n(CC2CC3(CCC3)C2)c1=O` [Compound I-269], for which the pIC50 was 8.40.

Turning to `CCc1ccc(Oc2ccc(/N=c3\[nH]c(=O)n(C[C@H](C)C(=O)OC)c(=O)n3Cc3ccc(C)cc3)cc2)nc1` [Compound I-270], the pIC50 was 8.40.

On to `COC(=O)[C@@H](C)Cn1c(=O)[nH]/c(=N\c2ccc(Oc3ccccn3)cc2)n(Cc2ccc(Cl)s2)c1=O` [Compound I-271], for which the negative logarithm of the IC50 (pIC50) is 8.00.

`COC(=O)[C@@H](C)Cn1c(=O)[nH]/c(=N\c2ccc(Oc3ccc(F)cn3)cc2)n(Cc2ccc(Cl)s2)c1=O` [Compound I-272] showed a pIC50 of 8.10.

For `C[C@@H](Cn1c(=O)[nH]/c(=N\c2ccc(Oc3ccccn3)cc2)n(Cc2ccc(Cl)s2)c1=O)C(=O)O` [Compound I-273], the pIC50 is 8.30.

`C[C@@H](Cn1c(=O)[nH]/c(=N\c2ccc(Oc3ccc(F)cn3)cc2)n(Cc2ccc(Cl)s2)c1=O)C(=O)O` [Compound I-274]: the pIC50 was 8.30.

In turn, `CCc1ccc(Oc2ccc(/N=c3\[nH]c(=O)n(C[C@H](C)C(=O)O)c(=O)n3Cc3ccc(C)cc3)cc2)nc1` [Compound I-275] showed a pIC50 of 8.40.

The compound `Cc1cc(/N=c2\[nH]c(=O)n(C[C@H](C)C(=O)O)c(=O)n2Cc2ccc(Cl)s2)ccc1Oc1ncccc1F` [Compound I-276] had a negative-log IC50 (pIC50) of 7.72.

On to `CC(C)(C)n1c(=O)[nH]/c(=N\c2ccc(Oc3ccc(-c4cccc(C(=O)O)c4)cn3)cc2)n(Cc2ccc(Cl)cc2)c1=O` [Compound R-001], for which the negative logarithm of the IC50 (pIC50) is 8.15.

Take `COC(=O)c1cccc(-c2ccc(Oc3ccc(/N=c4\[nH]c(=O)[nH]c(=O)n4Cc4ccc(Cl)cc4)cc3)nc2)c1` [Compound R-002]: the negative logarithm of the IC50 (pIC50) is 6.44.

Turning to `O=C(O)c1cccc(-c2ccc(Oc3ccc(/N=c4\[nH]c(=O)[nH]c(=O)n4Cc4ccc(Cl)cc4)cc3)nc2)c1` [Compound R-003], the negative-log IC50 (pIC50) was 8.40.

Consider `COC(=O)c1ccc(NC(=O)c2cccc(Oc3ccc(/N=c4\[nH]c(=O)n(C)c(=O)n4C[C@H]4CC[C@H](C)CC4)cc3)n2)cc1` [Compound R-004], for which the pIC50 is 6.91.

`CCn1c(=O)[nH]/c(=N\c2ccc(-c3ccc(C#N)cn3)cc2)n(Cc2ccc(Cl)cc2)c1=O` [Compound R-005] had a negative logarithm of the IC50 (pIC50) of 6.22.

Turning to `Cn1c(=O)[nH]/c(=N\c2ccc(Oc3cccc(C(=O)Nc4ccc(C(=O)O)cc4)n3)cc2)n(C[C@H]2CC[C@H](C)CC2)c1=O` [Compound R-006], the negative logarithm of the IC50 (pIC50) is 8.40.

For `CCn1c(=O)nc(Nc2ccc3nc(C(C)C)oc3c2)n(Cc2ccc(Cl)cc2)c1=O` [Compound R-007], the negative logarithm of the IC50 (pIC50) was 6.52.

The compound `COc1nccc(Oc2ccc(/N=c3\[nH]c(=O)n([C@@H](C)[C@@H](C)C(=O)O)c(=O)n3Cc3ccc(Cl)cc3)cc2)n1` [Compound R-010] had a pIC50 of 8.00.

In turn, `CC(C)n1c(=O)[nH]/c(=N\c2ccc(Oc3cccc(C#N)n3)c(Cl)c2)n(Cc2ccc(Cl)cc2)c1=O` [Compound R-011] showed a negative logarithm of the IC50 (pIC50) of 7.31.

Turning to `CC(C)n1c(=O)[nH]/c(=N\c2ccc(Oc3cccc(C(=O)O)n3)c(Cl)c2)n(Cc2ccc(Cl)cc2)c1=O` [Compound R-012], the negative logarithm of the IC50 (pIC50) is 8.30.

Turning to `COC(=O)[C@@H](C)Cn1c(=O)[nH]/c(=N\c2ccc(Oc3cnc(Cl)cn3)cc2)n(Cc2ccc(Cl)cc2)c1=O` [Compound R-013], the pIC50 is 8.22.

`C[C@@H](Cn1c(=O)[nH]/c(=N\c2ccc(Oc3cnc(Cl)cn3)cc2)n(Cc2ccc(Cl)cc2)c1=O)C(=O)O` [Compound R-014]: the pIC50 is 8.30.

In turn, `CCOC(=O)c1cnc(Oc2ccc(/N=c3\[nH]c(=O)n(CC)c(=O)n3Cc3ccc(Cl)cc3)cc2)c(Cl)c1` [Compound R-015, 1-(4-chlorobenzyl)-6-[4-(3-chloro-5-ethoxycarbonyl-2-pyridyloxy)phenylimino]-3-ethyl-1,3,5-triazinane-2,4-dione] gave a pIC50 of 6.98.

With `CCn1c(=O)[nH]/c(=N\c2ccc(Oc3ncc(C(=O)O)cc3Cl)cc2)n(Cc2ccc(Cl)cc2)c1=O` [Compound R-016, 1-(4-chlorobenzyl)-6-[4-(3-chloro-5-hydroxycarbonyl-2-pyridyloxy)phenylimino]-3-ethyl-1,3,5-triazinane-2,4-dione], the pIC50 is 8.22.

Turning to `COC(=O)[C@@H](C)Cn1c(=O)[nH]/c(=N\c2ccc(Oc3cnccn3)cc2)n(Cc2ccc(Cl)cc2)c1=O` [Compound R-017], the pIC50 was 8.22.

The compound `C[C@@H](Cn1c(=O)[nH]/c(=N\c2ccc(Oc3cnccn3)cc2)n(Cc2ccc(Cl)cc2)c1=O)C(=O)O` [Compound R-019] had a negative-log IC50 (pIC50) of 8.22.

`CC(C)(Cn1c(=O)[nH]/c(=N\c2ccc(Oc3cnccn3)cc2)n(Cc2ccc(Cl)cc2)c1=O)C(=O)O` [Compound R-020]: the negative logarithm of the IC50 (pIC50) was 7.89.

On to `CC(C)Oc1ccc(/N=c2\[nH]c(=O)n([C@H]3C[C@H](C(=O)O)C3)c(=O)n2Cc2ccc(Cl)cc2)cc1Cl` [Compound R-021], for which the pIC50 was 7.82.

Turning to `CC(C)Oc1ccc(/N=c2\[nH]c(=O)n([C@H]3C[C@@H](C(=O)O)C3)c(=O)n2Cc2ccc(Cl)cc2)cc1Cl` [Compound R-022], the pIC50 is 7.92.

As for `CCc1oc2ccc(/N=c3\[nH]c(=O)n([C@H]4C[C@H](C(=O)O)C4)c(=O)n3Cc3ccc(Cl)cc3)cc2c1C` [Compound R-023], the negative-log IC50 (pIC50) is 7.68.

`CCc1oc2ccc(/N=c3\[nH]c(=O)n([C@H]4C[C@@H](C(=O)O)C4)c(=O)n3Cc3ccc(Cl)cc3)cc2c1C` [Compound R-024] gave a pIC50 of 7.74.

The compound `COC(=O)C(C)(C)Cn1c(=O)[nH]/c(=N\c2ccc(Oc3cnc(Cl)cn3)cc2)n(Cc2ccc(Cl)cc2)c1=O` [Compound R-025] showed a pIC50 of 8.30.
